Source: patent US6455540B1, “Methods of use of quinolone compounds against anaerobic pathogenic bacteria” (priority 1999, dated 2002)

What was measured:
Assay in all cases: Agar dilution MIC
[1] = tested on: Peptostreptococcus micros; format: cell-based; settings: 12 isolates
[2] = tested on: Clostridium ramosum; format: cell-based; settings: 10 isolates
[3] = tested on: Fusobacterium spp group 1; format: cell-based; settings: 19 isolates
[4] = tested on: Actinomyces odontolyticus; format: cell-based; settings: 10 isolates
[5] = tested on: Fusobacterium russii; format: cell-based
[6] = tested on: Fusobacterium spp. group 2; format: cell-based, Fusobacterium mortiferum, necrogenes, ulcerans; settings: 12 isolates
[7] = tested on: Actinomyces israelii; format: cell-based; settings: 6 isolates
[8] = tested on: Clostridium inocuum; format: cell-based, Clostridium innocuum; settings: 11 isolates
[9] = tested on: Prevotella melaninogenica; format: cell-based; settings: 12 isolates
[10] = tested on: Prevotella buccae-oris group; format: cell-based; settings: 22 isolates
[11] = tested on: Fusobacterium varium; format: cell-based; settings: 17 isolates
[12] = tested on: Clostridium clostridioforme; format: cell-based; settings: 11 isolates
[13] = tested on: Prevotella denticola/loeschii group; format: cell-based; settings: 6 isolates
[14] = tested on: Prevotella bivia; format: cell-based; settings: 21 isolates
[15] = tested on: Anaerobiospirillum thomasii; format: cell-based; settings: 13 isolates
[16] = tested on: Anaerobiospirillum succiniciproducens; format: cell-based; settings: 3 isolates
[17] = tested on: Prevotella heparinolytica; format: cell-based; settings: 16 isolates
[18] = tested on: Peptostreptococcus prevotii; format: cell-based; settings: 9 isolates
[19] = tested on: Bilophila wadsworthia; format: cell-based; settings: 16 isolates; agar supplemented with pyruvate
[20] = tested on: Porphyromonas gingivalis; format: cell-based; settings: 13 isolates
[21] = tested on: Veillonella spp.; format: cell-based; settings: 24 isolates
[22] = tested on: Bacteroides tectum; format: cell-based; settings: 22 isolates
[23] = tested on: Bacteroides ureolyticus; format: cell-based; settings: 17 isolates
[24] = tested on: Porphyromonas macaccae; format: cell-based; settings: 13 isolates
[25] = tested on: Peptostreptococcus asaccharolyticus; format: cell-based; settings: 11 isolates
[26] = tested on: Clostridium dfficile; format: cell-based, Clostridium difficile; settings: 14 isolates
[27] = tested on: Peptostreptococcus magnus; format: cell-based; settings: 13 isolates
[28] = tested on: Prevotella intermedia; format: cell-based; settings: 11 isolates
[29] = tested on: Bacteroides gracilis; format: cell-based, Bacteroides gracilis (Campylobacter gracilis); settings: 11 isolates
[30] = tested on: Porphyromonas canoris; format: cell-based; settings: 10 isolates
[31] = tested on: Porphyromonas asaccharolyticus; format: cell-based, Porphyromonas asaccharolytica; settings: 11 isolates

## CC1(C)S[C@@H]2[C@H](NC(=O)Cc3ccccc3)C(=O)N2[C@H]1C(=O)O [Penicillin G]
[1]
  Minimal Inhibitory Concentration 90% (MIC90): 0.03 µg/mL
[2]
  Minimal Inhibitory Concentration 50% (MIC50): 0.06 µg/mL
  Minimal Inhibitory Concentration 90% (MIC90): 1 µg/mL
  Minimal Inhibitory Concentration Range: 0.06 to 1 µg/mL
[3]
  Minimal Inhibitory Concentration 90% (MIC90): 2 µg/mL
[4]
  Minimal Inhibitory Concentration 50% (MIC50): 0.125 µg/mL
  Minimal Inhibitory Concentration 90% (MIC90): .0125 µg/mL
  Minimal Inhibitory Concentration Range: 0.125 to 0.25 µg/mL
[5]
  Minimal Inhibitory Concentration 50% (MIC50): 0.03 µg/mL
  Minimal Inhibitory Concentration 90% (MIC90): 0.06 µg/mL
[6]
  Minimal Inhibitory Concentration 50% (MIC50): 0.25 µg/mL
  Minimal Inhibitory Concentration 90% (MIC90): 0.5 µg/mL
[7]
  Minimal Inhibitory Concentration 50% (MIC50): 0.03 µg/mL
[8]
  Minimal Inhibitory Concentration 50% (MIC50): 0.5 µg/mL
  Minimal Inhibitory Concentration 90% (MIC90): 0.5 µg/mL
[9]
  Minimal Inhibitory Concentration 50% (MIC50): 0.25 µg/mL
  Minimal Inhibitory Concentration 90% (MIC90): 2 µg/mL
[10]
  Minimal Inhibitory Concentration 50% (MIC50): 8 µg/mL
  Minimal Inhibitory Concentration 90% (MIC90): >32 µg/mL
[11]
  Minimal Inhibitory Concentration 50% (MIC50): 0.5 µg/mL
  Minimal Inhibitory Concentration 90% (MIC90): 8 µg/mL
[12]
  Minimal Inhibitory Concentration 50% (MIC50): 1 µg/mL
  Minimal Inhibitory Concentration 90% (MIC90): 16 µg/mL
[13]
  Minimal Inhibitory Concentration 50% (MIC50): 4 µg/mL
[14]
  Minimal Inhibitory Concentration 50% (MIC50): 16 µg/mL
  Minimal Inhibitory Concentration 90% (MIC90): 32 µg/mL
  Minimal Inhibitory Concentration Range: 0.25 to 32 µg/mL
[15]
  Minimal Inhibitory Concentration 50% (MIC50): 0.06 µg/mL
  Minimal Inhibitory Concentration 90% (MIC90): 0.125 µg/mL
  Minimal Inhibitory Concentration Range: 0.06 to 0.125 µg/mL
[16]
  Minimal Inhibitory Concentration 50% (MIC50): 0.5 µg/mL
  Minimal Inhibitory Concentration Range: 0.5 to 1 µg/mL
[17]
  Minimal Inhibitory Concentration 50% (MIC50): 0.06 µg/mL
  Minimal Inhibitory Concentration 90% (MIC90): 0.125 µg/mL
  Minimal Inhibitory Concentration Range: 0.06 to 0.25 µg/mL
[18]
  Minimal Inhibitory Concentration 50% (MIC50): 0.03 µg/mL
  Minimal Inhibitory Concentration Range: 0.03 to 0.06 µg/mL
[19]
  Minimal Inhibitory Concentration 50% (MIC50): 4 µg/mL
  Minimal Inhibitory Concentration 90% (MIC90): 8 µg/mL
  Minimal Inhibitory Concentration Range: 2 to 16 µg/mL
[20]
  Minimal Inhibitory Concentration 90% (MIC90): 0.03 µg/mL
[21]
  Minimal Inhibitory Concentration 50% (MIC50): 1 µg/mL
  Minimal Inhibitory Concentration 90% (MIC90): 4 µg/mL
[22]
  Minimal Inhibitory Concentration 50% (MIC50): 0.03 µg/mL
  Minimal Inhibitory Concentration 90% (MIC90): 16 µg/mL
[23]
  Minimal Inhibitory Concentration 90% (MIC90): 0.25 µg/mL
[24]
  Minimal Inhibitory Concentration 50% (MIC50): 0.5 µg/mL
  Minimal Inhibitory Concentration 90% (MIC90): 0.5 µg/mL
[25]
  Minimal Inhibitory Concentration 50% (MIC50): 0.03 µg/mL
  Minimal Inhibitory Concentration 90% (MIC90): 0.25 µg/mL
[26]
  Minimal Inhibitory Concentration 50% (MIC50): 2 µg/mL
  Minimal Inhibitory Concentration 90% (MIC90): 4 µg/mL
  Minimal Inhibitory Concentration Range: 1 to 4 µg/mL
[27]
  Minimal Inhibitory Concentration 50% (MIC50): 0.03 µg/mL
  Minimal Inhibitory Concentration 90% (MIC90): 0.25 µg/mL
[28]
  Minimal Inhibitory Concentration 50% (MIC50): 0.03 µg/mL
  Minimal Inhibitory Concentration 90% (MIC90): 4 µg/mL
[29]
  Minimal Inhibitory Concentration 50% (MIC50): 0.125 µg/mL
  Minimal Inhibitory Concentration 90% (MIC90): 4 µg/mL

## Amoxicillin clavulanate
[1]
  Minimal Inhibitory Concentration 50% (MIC50): 0.03 µg/mL
  Minimal Inhibitory Concentration Range: 0.03 to 0.125 µg/mL
[2]
  Minimal Inhibitory Concentration 50% (MIC50): 0.06 µg/mL
  Minimal Inhibitory Concentration 90% (MIC90): 0.25 µg/mL
  Minimal Inhibitory Concentration Range: 0.06 to 0.25 µg/mL
[3]
  Minimal Inhibitory Concentration 50% (MIC50): 0.06 µg/mL
[4]
  Minimal Inhibitory Concentration 90% (MIC90): 0.25 µg/mL
  Minimal Inhibitory Concentration Range: 0.06 to 0.125 µg/mL
[5]
  Minimal Inhibitory Concentration 50% (MIC50): 0.06 µg/mL
[6]
  Minimal Inhibitory Concentration 50% (MIC50): 1 µg/mL
  Minimal Inhibitory Concentration 90% (MIC90): 2 µg/mL
[7]
  Minimal Inhibitory Concentration 50% (MIC50): 0.03 µg/mL
  Minimal Inhibitory Concentration Range: 0.03 to 1 µg/mL
[8]
  Minimal Inhibitory Concentration 50% (MIC50): 0.5 µg/mL
  Minimal Inhibitory Concentration 90% (MIC90): 0.5 µg/mL
  Minimal Inhibitory Concentration Range: 0.5 to 2 µg/mL
[9]
  Minimal Inhibitory Concentration 50% (MIC50): 2 µg/mL
  Minimal Inhibitory Concentration 90% (MIC90): 4 µg/mL
  Minimal Inhibitory Concentration Range: 0.03 to 16 µg/mL
[10]
  Minimal Inhibitory Concentration 50% (MIC50): 0.25 µg/mL
  Minimal Inhibitory Concentration 90% (MIC90): 1 µg/mL
  Minimal Inhibitory Concentration Range: 0.125 to 2 µg/mL
[30]
  Minimal Inhibitory Concentration 90% (MIC90): 0.03 µg/mL
[11]
  Minimal Inhibitory Concentration 50% (MIC50): 2 µg/mL
  Minimal Inhibitory Concentration 90% (MIC90): 4 µg/mL
  Minimal Inhibitory Concentration Range: 0.125 to 4 µg/mL
[12]
  Minimal Inhibitory Concentration 50% (MIC50): 0.5 µg/mL
  Minimal Inhibitory Concentration 90% (MIC90): 1 µg/mL
  Minimal Inhibitory Concentration Range: 0.5 to 8 µg/mL
[13]
  Minimal Inhibitory Concentration 50% (MIC50): 0.06 µg/mL
  Minimal Inhibitory Concentration Range: 0.03 to 0.5 µg/mL
[14]
  Minimal Inhibitory Concentration 50% (MIC50): 0.5 µg/mL
  Minimal Inhibitory Concentration 90% (MIC90): 4 µg/mL
  Minimal Inhibitory Concentration Range: 0.06 to 4 µg/mL
[31]
  Minimal Inhibitory Concentration 90% (MIC90): 0.03 µg/mL
[15]
  Minimal Inhibitory Concentration 90% (MIC90): 0.25 µg/mL
  Minimal Inhibitory Concentration Range: 0.125 to 0.25 µg/mL
[16]
  Minimal Inhibitory Concentration 50% (MIC50): 0.25 µg/mL
  Minimal Inhibitory Concentration Range: 0.25 to 0.5 µg/mL
[17]
  Minimal Inhibitory Concentration 90% (MIC90): 0.25 µg/mL
  Minimal Inhibitory Concentration Range: 0.06 to 0.25 µg/mL
[18]
  Minimal Inhibitory Concentration 50% (MIC50): 0.03 µg/mL
[19]
  Minimal Inhibitory Concentration 50% (MIC50): 2 µg/mL
  Minimal Inhibitory Concentration 90% (MIC90): 4 µg/mL
  Minimal Inhibitory Concentration Range: 1 to 4 µg/mL
[20]
  Minimal Inhibitory Concentration 90% (MIC90): 0.06 µg/mL
[21]
  Minimal Inhibitory Concentration 50% (MIC50): 0.5 µg/mL
  Minimal Inhibitory Concentration 90% (MIC90): 2 µg/mL
[22]
  Minimal Inhibitory Concentration 50% (MIC50): 0.06 µg/mL
  Minimal Inhibitory Concentration 90% (MIC90): 0.5 µg/mL
  Minimal Inhibitory Concentration Range: 0.03 to 0.5 µg/mL
[25]
  Minimal Inhibitory Concentration 50% (MIC50): 0.03 µg/mL
  Minimal Inhibitory Concentration Range: 0.03 to 1 µg/mL
[26]
  Minimal Inhibitory Concentration 50% (MIC50): 1 µg/mL
  Minimal Inhibitory Concentration 90% (MIC90): 1 µg/mL
  Minimal Inhibitory Concentration Range: 0.5 to 1 µg/mL
[27]
  Minimal Inhibitory Concentration 50% (MIC50): 0.03 µg/mL
  Minimal Inhibitory Concentration Range: 0.03 to 1 µg/mL
[28]
  Minimal Inhibitory Concentration 50% (MIC50): 0.03 µg/mL
  Minimal Inhibitory Concentration Range: 0.03 to 0.5 µg/mL
[29]
  Minimal Inhibitory Concentration 50% (MIC50): 0.5 µg/mL
  Minimal Inhibitory Concentration 90% (MIC90): 2 µg/mL
